From patent US12116356B2, “N-heterocyclic five-membered ring-containing capsid protein assembly inhibitor, pharmaceutical composition thereof, and use thereof” (CHIA TAI TIANQING PHARMACEUTICAL GROUP CO., LTD., priority 2018, dated 2024)

Experiments:
[1] = In vivo pharmacokinetics (PK) study in rats; parameters: species or system SD rats; conditions: rat
[2] = Plasma protein binding assay (equilibrium dialysis), human plasma; format: in vitro ADME
Description: (§1) Formulation of plasma sample: 495 μL of blank plasmas of the corresponding species (mouse, rat, dog, monkey, and human) were drawn respectively, and thereto was added 5 μL of the corresponding test compound solution or positive control to give plasma sample solutions having a plasma drug concentration of the compound of 1 μM, and 10 μM, respectively (formulated with acetonitrile).
(§2) The pre-treated dialysis membrane was placed in a high-throughput equilibrium dialysis device, and 100 μL of the plasma sample solution and PBS buffer solution were drawn and added respectively to both sides of the dialysis membrane (sample side and buffer side) (n=3). After the equilibration device was sealed with a film, it was incubated at 37° C. overnight (100 rpm). After dialysis equilibrium was reached, 50 μL samples were drawn from the sample side and the buffer side, respectively, and the reaction was terminated by adding ice acetonitrile containing an internal standard.
(§3) Sample pre-treatment: To 50 μL of the plasma-side sample was added 450 μL of ice acetonitrile containing an internal standard, and then precipitated. After vortexing for 5 minutes, the sample was centrifugated (12000 rpm, 4° C.) for 10 minutes. 75 μL of the supernatant was pipetted, and 75 μL of ultrapure water was added thereto for dilution and mixed uniformly. 1 μL of the resulting solution was injected for analysis. To 50 μL of the PBS-side sample was added 250 μL of ice acetonitrile with an internal standard, and precipitated. After vortexing for 5 min, the sample was centrifugated (12000 rpm, 4° C.) for 10 min. 75 μL of the supernatant was pipetted, and 75 μL of ultrapure water was added thereto for dilution and mixed uniformly. 2 μL of the resulting solution was injected for analysis.

[3] = tested on: rAAV8-1.3HBV virus (adr subtype); experiment: Antiviral effect evaluation in AAV mouse model; format: in vivo, C57BL/6 mice; conditions: 30 mpk intragastric once daily, administration for 24 days
Description: 6-8 week old male C57BL/6 mice were injected with rAAV8-1.3HBV virus (adr subtype) at tail vein at a dose of 1×10^11 vg. Blood was collected from the orbits of the mice on week 2 and 4 after the virus injection. The serum was separated, and the expression levels of HBeAg and HBsAg in the serum and the HBV DNA copy number were detected to evaluate whether the model was successfully established. According to the results of quantitative detection of serological HBeAg, HBsAg and HBV DNA, the mice having HBV DNA expression level greater than 1×10^4 IU/mL, HBeAg expression level greater than 1×10^3 NCU/mL and HBsAg expression level greater than 1×10^3 ng/mL were selected. The mice were grouped into a blank control group, a vehicle control group, and a test substance group. […] During the experiment, blood was collected from the orbits every other week, serum was separated, and the DNA content was detected by fluorescent quantitative PCR method.

[4] = In vivo pharmacokinetic (PK) study in Beagle dog; parameters: species or system Beagle dogs
Description: Beagle dogs, weighing 9 to 11 kg, were randomly divided into two groups of 3 dogs each, compound 12 was given by intragastric administration to each group at a dose of 5 mg/kg.
The test animals (Beagle dogs) were fasted for 12 hours before the administration, and fed 4 hours after the administration. They were free to access water before and after the experiment.
After the intragastric administration, about 0.5 mL of whole blood was collected from the veins of the left forelimb in an EDTA-K2 anticoagulated vacuum blood collection tube at 0 min, 15 min, 30 min, 1 h, 2 h, 4 h, 6 h, 8 h, 10 h, 24 h, 48 h, and 72 h. Within 30 minutes after collection, the plasma was separated by centrifugation at 4° C. and 4000 rpm for 10 minutes. Immediately after collecting all plasma, it was stored at −20° C. for testing.
50 μL of the plasma sample to be tested and standard curve sample were pipetted, and then thereto was added 500 μL of an acetonitrile solution containing an internal standard (diazepam 20 mg/mL). The resulting mixture was oscillated and mixed uniformly for 5 min, and then centrifugated at 12000 rpm for 10 min, 75 μL of the supernatant was pipetted, and 75 μL of ultrapure water was added for dilution and mixed evenly. 1 μL of the resulting solution was pipetted for LC/MS/MS determination.

[5] = Plasma protein binding assay (equilibrium dialysis), dog plasma; format: in vitro ADME
Description: as §1, §2, §3

[6] = Stability of rat liver microsomes in vitro; format: in vitro ADME
Description: (§4) 300 μL of a final incubation system contains 30 μL of liver microsomes (protein concentration: 0.15 mg/mL), 30 μL NADPH+MgCl2, 3 μL substrate (formulated with acetonitrile), and 237 μL PBS buffer. Duplicate incubation systems of 0.3 mL each were formulated for each species. A total volume of 270 μL of a uniformly mixed solution of the substrate and the enzyme was formulated in each tube, the solution and NADPH were pre-incubated at 37° C. for 5 minutes, respectively. Then 30 μL of the mixed solution of NADPH+MgCl2 was added for reaction. 50 μL of the reaction solution was taken out at 0, 10, 30, and 60 mins, and the reaction was terminated with 300 μL of ice acetonitrile containing an internal standard.
(§5) Sample pre-treatment: To 50 μL of the incubated sample was added 300 μL of ice acetonitrile containing diazepam as an internal standard and then precipitated. After vortexing for 5 minutes, the sample was centrifugated (12000 rpm, 4° C.) for 10 minutes. 75 μL of the supernatant was pipetted into a 96-well plate, and then diluted with 75 μL ultrapure water and mixed uniformly. 0.5 μL of the resulting solution was injected and analyzed by LC-MS/MS.

[7] = Stability of human liver microsomes in vitro; format: in vitro ADME
Description: as §4, §5

[8] = plasma, Beagle dogs, PO 5 mg/kg

Row | SMILES | Binding rate ([2]; 1 μM) [%] | Binding rate ([2]; 10 μM) [%] | Reduction levels (log10) of HBV DNA in serum, Day 7 [3] [log10] | Reduction levels (log10) of HBV DNA in serum, Day 14 [3] [log10] | Reduction levels (log10) of HBV DNA in serum, Day 21 [3] [log10] | Reduction levels (log10) of HBV DNA in serum, Day 28 [3] [log10] | Binding rate ([5]; 1 μM) [%] | Binding rate ([5]; 10 μM) [%] | Remaining (%) at 60 min [6] [%] | further results
1 | Cc1c(C(=O)Nc2ccc(F)c(C#N)c2)c(C)n(C)c1C(=O)C(=O)N[C@@H](C)C(F)(F)F [Example 12] | 94.0 | 93.7 | 2.42 | 3.46 | 5.08 | 2.48 | 85.9 | 85.9 | 65.0 | half-life ([1]; SD, in vivo, iv, 5 mg/kg): 3.41 h; AUC(0-inf) ([1]; plasma, SD rats, IV 5 mg/kg): 27.1 µg·h/mL; Cmax ([1]; plasma, SD rats, IV 5 mg/kg): 6.27 µg/mL; clearance ([1]; plasma, SD rats, IV 5 mg/kg): 0.186 L/h/kg; AUC(0-t) ([1]; plasma, SD rats, IV 5 mg/kg, read-out: AUC(0-48 h)): 27.1 µg·h/mL; Vd ([1]; plasma, SD rats, IV 5 mg/kg, read-out: Vz): 0.914 L/kg; half-life ([4]; Beagle, in vivo, po, 5 mg/kg): 105 h; AUC(0-inf) [4, 8]: 162 µg·h/mL; Cmax [4, 8]: 1.28 µg/mL; Tmax [4, 8]: 1.67 h; AUC(0-t) ([4]; plasma, Beagle dogs, PO 5 mg/kg, read-out: AUC(0-72 h)): 61.9 µg·h/mL; MRT last ([4]; plasma, Beagle dogs, PO 5 mg/kg, read-out: MRT(0-t)): 32.9 h; Remaining (%) at 60 min [7]: 78.8%
2 | Cc1c(C(=O)Nc2ccc(F)c(C#N)c2)c(C)n(C)c1C(=O)C(=O)NC1(C(F)(F)F)COC1 [Example 25, N-(3-cyano-4-fluorophenyl)-1,2,4-trimethyl-5-(2-oxo-2-((3-(trifluoromethyl)oxetan-3-yl)amino)acetyl)-1H-pyrrole-3-carboxamide] | 92.9 | 92.2 | 1.16 | 1.76 | 2.89 | 1.28 | 87.0 | 86.8 | 52.0 | 
